Source: patent publication US5340829A, “Immunoregulatory agents” (priority 1992, dated 1994)
Entries after “also recorded” stand apart in the source; their conditions may differ. Like-named read-outs stand apart in the source and are kept apart here.

Experiments:
[1] = tested on: Human polymorphonuclear leukocytes (PMNs); experiment: LTB4 release by polymorphonuclear leukocytes (Experiment 10); type: cell-based; conditions: normal human PMNs
Excerpt: Human polymorphonuclear leukocytes (PMNs) were used to study LTB4 release, which is known to be involved in inflammation.

[2] = tested on: ear swelling in response to PMA; experiment: Ear swelling in response to PMA (Experiment 21); conditions: in vivo
[3] = tested on: spleen cells stimulated with Concanavalin A (Con A); experiment: Spleen cell proliferative response to Con A after oral sorbinil (Experiment 8); type: in vivo, mice; conditions: for activation at 11 mg/kg/day: Mus musculus, read-out: Enhancement of proliferative response
Protocol: The proliferative response of T lymphocytes to the Con A mitogen requires the obligatory participation of adherent accessory cells, which are presumed to be macrophages.
Mice received sorbinil orally for one, two, or three days prior to sacrifice. The dosage was 11 mg/kg per day. Control mice received the buffer vehicle alone. Mice from these four groups were sacrificed and their spleens harvested. The spleens were teased into single-cell suspensions that were cultured with different concentrations of Con A for three or four days. One microcurie of tritiated thymidine was added to each culture 18 hours before the cultures were terminated. Incorporation of the tritiated thymidine into cellular DNA was measured by using a liquid scintillation counter. The results of this experiment are presented in FIGS. 20 and 21 and are summarized as follows: […]

[4] = tested on: ear swelling produced by topical application of arachidonic acid; experiment: Ear swelling produced by topical arachidonic acid (Experiment 22); type: in vivo, mice
[5] = tested on: Mouse peritoneal cells; experiment: 3H-thymidine incorporation in peritoneal cells, with or without LPS (Experiment 15); type: cell-based; conditions: concentrations as high as 10^-6 M/L; control cells or cells stimulated using LPS
[6] = tested on: swelling of popliteal lymph nodes; experiment: Popliteal lymph node assay (Experiment 20); type: in vivo; conditions: Balb C mice injected in the foot pad with cells from C57BL6 mice
Protocol: In vivo, popliteal lymph node assays were conducted on normal Balb C mice.

With `O=C1NC(=O)[C@@]2(CCOc3ccc(F)cc32)N1` [Sorbinil, 4(S)-2,3-dihydro-6-fluorospiro-(4H-1-benzopyran-4,4'-imidazolidine)-2',5'-dione] the “Production of LTB4” value [1] was “no effect”, the “Swelling of mouse ears in response to PMA” value [2] was “no effect” and the activation at 11 mg/kg/day ([3]; 72 h) was 9%. The activation at 11 mg/kg/day ([3]; 96 h) was 3 to 30%, the “Reduction of proliferative response” value ([3]; cultures harvested day four, sorbinil three days prior to harvest) was 25-58% and the “Reduction of proliferative response” value ([3]; cultures harvested day four, sorbinil two days prior to sacrifice) was 5 to 18%. For the same molecule, the “Reduction of proliferative response” value ([3]; cultures harvested day three, sorbinil one day prior to sacrifice, 1 μmg of Con A/ml) was 25%, the “Reduction of proliferative response” value ([3]; cultures harvested day three, sorbinil one day prior to sacrifice, Con A 2 μmg/ml) was 18% and the “Reduction of proliferative response” value ([3]; cultures harvested day three, sorbinil three days prior to sacrifice, Con A 2 μmg/ml) was 30%. For the same molecule, the “Reduction of proliferative response” value ([3]; cultures harvested day three, sorbinil three days prior to sacrifice, Con A 5 μmg/ml) was 27%, the “Reduction of proliferative response” value ([3]; cultures harvested day three, sorbinil two days prior to sacrifice, 1 μmg of Con A/ml) was 22% and the “Reduction of proliferative response” value ([3]; cultures harvested day three, sorbinil two days prior to sacrifice, Con A 2 μmg/ml) was 11%. The “Proliferative response to the mitogen Con A (in words)” value ([3]; sorbinil 11 mg/kg per day orally prior to sacrifice) was “reduced proliferative response; also recorded: inhibits the proliferative response of T-cells”, the “Kinetics of the proliferative response of spleen cells to Con A” value ([3]; sorbinil one, two, or three days prior to spleen cell harvesting) was “not affected” and the “Dose response pattern to Con A” value ([3]; sorbinil-treated vs buffer-treated mice) was “similar”. The “Ear swelling produced by topical arachidonic acid” value ([4]; oral administration) was “no effect”, the “Ear swelling produced by topical arachidonic acid” value ([4]; topical administration) was “no effect” and the 3H-thymidine incorporation [5] was “no significant effect”. For the same molecule, the “Swelling of popliteal lymph nodes” value [6] was “no effect”.
